Here are results for four compounds from article PMC6352951, “Computationally driven discovery of phenyl(piperazin-1-yl)methanone derivatives as reversible monoacylglycerol lipase (MAGL) inhibitors” (Journal of Enzyme Inhibition and Medicinal Chemistry, 2019).

Like-named read-outs stand apart in the source and are kept apart here.

For experiment [1], the system named is breast MDA-MB-231 cancer cells. Nature of the experiment: Cell viability assay. The class given is cell-based, human. To be noted: 96 h, mean ± SD. The protocol: (§1) Human breast MDA-MB-231, colorectal HCT116 and ovarian CAOV3, OVCAR3, and SKOV3 cancer cells (from ATCC) were maintained at 37 °C in a humidified atmosphere containing 5% CO2 according to the supplier. Cells (5 × 10^2) were plated in 96-well culture plates. The day after seeding, vehicle or compounds were added at different concentrations to the medium. Compounds were added to the cell culture at a concentration ranging from 200 to 0.02 μM. Cell viability was measured after 96 h according to the supplier (Promega, cat. n° G7571) with a Tecan M1000 PRO instrument. IC50 values were calculated from logistical dose-response curves. Averages were obtained from triplicates and error bars are standard deviations.

The test system of experiment [2] is colorectal HCT116 cancer cells. Kind of experiment: Cell viability assay. In kind it is cell-based, human. To be noted: 96 h, mean ± SD. On the procedure:
as §1

The test system of experiment [3] is ovarian CAOV3 cancer cells. Nature of the experiment: Cell viability assay. In kind it is cell-based, human. To be noted: 96 h, mean ± SD. On the procedure: as §1
The subject of experiment [4] is ovarian OVCAR3 cancer cells. Kind of experiment: Cell viability assay. In kind it is cell-based, human. To be noted: 96 h, mean ± SD. On the procedure: as §1
The subject of experiment [5] is ovarian SKOV3 cancer cells. Nature of the experiment: Cell viability assay. In kind it is cell-based, human. To be noted: 96 h, mean ± SD. On the procedure: as §1
A further experiment addresses T1, Human recombinant MAGL (Homo sapiens, UniProt Q99685).
T1 construct: purchased Cayman Chemical
T1 sequence (Q99685 1-303): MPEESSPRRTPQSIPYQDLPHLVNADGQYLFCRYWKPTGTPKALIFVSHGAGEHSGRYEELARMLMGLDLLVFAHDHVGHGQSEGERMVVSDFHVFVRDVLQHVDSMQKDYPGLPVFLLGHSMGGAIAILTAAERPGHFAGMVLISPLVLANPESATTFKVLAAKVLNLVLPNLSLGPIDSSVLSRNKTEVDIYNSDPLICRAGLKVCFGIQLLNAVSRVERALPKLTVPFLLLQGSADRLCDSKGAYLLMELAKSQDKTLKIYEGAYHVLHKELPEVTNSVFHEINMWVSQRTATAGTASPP
Kind of experiment: MAGL inhibition assay (4-NPA substrate, absorbance at 405 nm). The class given is biochemical. On the procedure:
Compounds 1–3 were purchased from ChemBridge corporation, whereas compounds 4 and 5 were synthesized. Human recombinant MAGL, 4-nitrophenyl acetate substrate (4-NPA) and CAY10499 were purchased from Cayman Chemical. The IC50 values were generated in 96-well microtiter plates. The MAGL reaction was conducted at rt at a final volume of 200 µL in […] Tris buffer, pH 7.2, containing […] EDTA. A total of 150 µL of 4-NPA 133.3 µM was added to 10 µL of DMSO containing the appropriate amount of compound. The reaction was initiated by the addition of 40 µL of MAGL (11 ng/well) in such a way that the assay was linear over 30 min. The final concentration of the analyzed compounds ranged from 10 to 0.00001 µM for CAY10499 and from 200 to 0.0128 µM for the other compounds. After the reaction had proceeded for 30 min, absorbance values were then measured by using a VictorX3 PerkinElmer instrument at 405 nm. Two reactions were also run: one reaction containing no compounds and the second one containing neither inhibitor nor enzyme. To remove possible false positive results, a blank analysis was carried out for each compound concentration and the final absorbance results were obtained detracting the absorbance produced by the presence of all the components except MAGL in the same conditions.

Experiment [6] concerns MDA-MB-231, HCT116, CAOV3, OVCAR3 and SKOV3 cancer cells. Kind of experiment: Cell viability assay, range over all tested cell lines. The class given is cell-based. To be noted: Homo sapiens, 96 h. The protocol: as §1
[7] abbreviates: 30 min reaction, no DTT, read-out: MAGL inhibition IC50.

Turning to `COc1nn(-c2ccc(NC(=O)OCc3ccccc3)c(C)c2)c(=O)o1` [CAY10499, reference compound], the IC50 (usually the concentration needed to halve the response being measured) in experiment [1] was 82 ± 5 µM; in experiment [2], 45 ± 3 µM; in experiment [3], 90 ± 6 µM; in experiment [4] it was 52 ± 3 µM; in experiment [5], 38 ± 4 µM.

Consider `O=C(c1ccc(-c2cccc3ccc(O)cc23)cc1)N1CCN(c2cccc(Cl)c2)CC1` [compound 4], for which the half-inhibitory concentration (IC50) at Human recombinant MAGL (setting [7]) amounted to 6.1 µM; at Human recombinant MAGL (in the presence of 10 μM DTT, read-out: MAGL inhibition IC50 in the presence of DTT), 6.2 µM; in experiment [1] (Homo sapiens, MDA-MB-231), 59 ± 5 µM; in experiment [2] (Homo sapiens, HCT-116), 48 ± 2 µM; in experiment [3] (Homo sapiens, Caov-3), 51 ± 3 µM; in experiment [4] (Homo sapiens, OVCAR-3) it was 72 ± 4 µM. For the same compound, the IC50 is 31 ± 2 µM in experiment [5] (Homo sapiens, SK-OV-3) and 31 to 72 µM in experiment [6]. The “Effect of preincubation time on MAGL inhibitory potency (reversibility)” value on Human recombinant MAGL (preincubated with the enzyme for 0, 30 and 60 min before adding substrate) is “did not show any significant increase in inhibitory potency at longer incubation times”. Moreover, the “Fold improvement of MAGL inhibition activity with respect to compound 1” value at Human recombinant MAGL (ratio of IC50 values vs compound 1) amounted to 4 fold. Moreover, the “Fold higher MAGL inhibition activity than compound 5” value at Human recombinant MAGL (ratio of IC50 values vs compound 5) is recorded as 5 fold.

Consider `O=C(c1ccc(-c2ccccc2)cc1)N1CCN(c2cccc(Cl)c2)CC1` [compound 1], for which the IC50 at Human recombinant MAGL (setting [7]) was determined as 23.3 µM.

For `O=C(c1ccc(-c2ccccc2)cc1)N1CCN(c2cccc3ccc(O)cc23)CC1` [compound 5], the IC50 at Human recombinant MAGL (setting [7]) is 31.9 µM.
